Test results as given in ChEMBL document CHEMBL4725475, “Discovery of Potent and Selective 7-Azaindole Isoindolinone-Based PI3Kγ Inhibitors” (ACS Med Chem Lett, 2020).

How the values were obtained:
Homo sapiens [1] = species: Homo sapiens; experiment: Selectivity index, ratio of inhibition for PI3Kalpha (unknown origin) to inhibition for PI3K p120 gamma (unknown origin) using phosphatidylinositol 4,5-bisphosphate as substrate in presence of ATP incubated for 60 mins by ADP-Glo assay
[2] = target: T1, Phosphatidylinositol 4,5-bisphosphate 3-kinase catalytic subunit gamma isoform (Homo sapiens, UniProt P48736); experiment: Inhibition of PI3K p120gamma (unknown origin) using phosphatidylinositol 4,5-bisphosphate as substrate in presence of ATP incubated for 60 mins by ADP-Glo assay
[3] = target: T1, Phosphatidylinositol 4,5-bisphosphate 3-kinase catalytic subunit gamma isoform; experiment: Inhibition of PI3Kgamma in human THP-1 cells assessed as reduction in Akt phosphorylation at S473 residue incubated for 60 mins measured after 120 mins by alphalisa assay; type: cell-based
Homo sapiens [4] = species: Homo sapiens; experiment: Selectivity index, ratio of inhibition for PI3Kdelta (unknown origin) to inhibition for PI3K p120 gamma (unknown origin) using phosphatidylinositol 4,5-bisphosphate as substrate in presence of ATP incubated for 60 mins by ADP-Glo assay

T1 sequence (P48736 whole entry, canonical isoform): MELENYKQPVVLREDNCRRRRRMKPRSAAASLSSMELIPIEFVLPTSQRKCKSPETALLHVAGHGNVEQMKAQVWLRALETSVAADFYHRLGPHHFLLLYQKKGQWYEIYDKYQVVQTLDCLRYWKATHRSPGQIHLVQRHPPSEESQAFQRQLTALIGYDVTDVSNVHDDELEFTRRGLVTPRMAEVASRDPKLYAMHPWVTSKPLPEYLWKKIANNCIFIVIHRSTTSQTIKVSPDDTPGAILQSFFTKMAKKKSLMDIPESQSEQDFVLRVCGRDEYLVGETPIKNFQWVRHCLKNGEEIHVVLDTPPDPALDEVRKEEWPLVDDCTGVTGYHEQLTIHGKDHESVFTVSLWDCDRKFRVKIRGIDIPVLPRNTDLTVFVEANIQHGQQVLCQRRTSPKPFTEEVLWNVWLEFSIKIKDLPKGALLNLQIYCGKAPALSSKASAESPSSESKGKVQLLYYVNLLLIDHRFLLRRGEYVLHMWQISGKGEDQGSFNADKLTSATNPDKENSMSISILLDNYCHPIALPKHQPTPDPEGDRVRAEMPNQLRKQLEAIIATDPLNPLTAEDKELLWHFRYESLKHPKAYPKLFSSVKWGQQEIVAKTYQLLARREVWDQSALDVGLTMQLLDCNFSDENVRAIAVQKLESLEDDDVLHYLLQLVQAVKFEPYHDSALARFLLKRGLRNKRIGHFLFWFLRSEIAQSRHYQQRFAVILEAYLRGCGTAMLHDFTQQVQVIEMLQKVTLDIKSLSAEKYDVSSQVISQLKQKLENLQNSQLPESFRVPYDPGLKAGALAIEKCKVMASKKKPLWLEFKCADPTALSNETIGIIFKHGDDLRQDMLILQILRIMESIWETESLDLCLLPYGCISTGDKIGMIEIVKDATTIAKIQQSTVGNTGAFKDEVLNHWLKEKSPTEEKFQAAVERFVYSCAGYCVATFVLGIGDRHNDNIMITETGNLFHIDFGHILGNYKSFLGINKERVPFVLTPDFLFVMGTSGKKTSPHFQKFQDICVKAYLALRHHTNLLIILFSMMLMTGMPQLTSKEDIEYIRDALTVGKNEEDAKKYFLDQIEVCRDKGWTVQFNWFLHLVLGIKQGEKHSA

SMILES	Selectivity ratio (Homo sapiens [1])	IC50 [2] [µM]	IC50 [3] [µM]	Selectivity ratio (Homo sapiens [4])
Cc1cc(-c2cnc3[nH]cc(-c4ccc(C(=O)O)c(C(F)(F)F)c4)c3c2)cc2c1C(=O)N([C@@H](C)C1CC1)C2	380	0.00164	0.35	591
Cc1cc(-c2cnc3[nH]cc(-c4ccncc4)c3c2)cc2c1C(=O)N([C@H](C)C1CC1)C2		0.009		
Cc1cc(-c2cnc3[nH]cc(-c4ccncc4)c3c2)cc2c1C(=O)N(CC(F)(F)F)C2	42	0.0253	1.6	62
Cc1cc(-c2cnc3[nH]cc(-c4ccc(C(=O)O)c(C5CC5)c4)c3c2)cc2c1C(=O)N([C@@H](C)C1CC1)C2	585	0.0016	0.04	494
Cc1cc(-c2cnc3[nH]cc(-c4cccc(C(=O)O)c4)c3c2)cc2c1C(=O)N([C@@H](C)C1CC1)C2	321	0.0027	0.11	772
Cc1ccc(-c2c[nH]c3ncc(-c4cc(C)c5c(c4)CN([C@@H](C)C4CC4)C5=O)cc23)cc1C(=O)O	> 1560	0.005	0.26	> 1900
Cc1cc(-c2cnc3[nH]cc(C4CCNC4)c3c2)cc2c1C(=O)N([C@@H](C)C1CC1)C2 (stereo partly specified)	> 36	0.281	3.8	> 36
Cc1cc(-c2cnc3[nH]cc(-c4ccnc(C(F)(F)F)c4)c3c2)cc2c1C(=O)N([C@@H](C)C1CC1)C2	> 578	0.016	4	> 552
COc1cc(-c2cnc3[nH]cc(-c4cnn(C)c4)c3c2)cc2c1C(=O)N([C@@H](C)C1CC1)C2	> 1670	0.0043	0.17	365
Cc1cc(-c2cnc3[nH]cc(-c4ccncc4)c3c2)cc2c1C(=O)N(C1CCOCC1)C2	7	0.05	1	18
Cc1cc(-c2cnc3[nH]cc(-c4ccc(C(=O)O)c(F)c4)c3c2)cc2c1C(=O)N([C@@H](C)C1CC1)C2	546	0.0031	0.7	1050
Cc1cc(-c2cnc3[nH]cc(-c4ccc(C#N)cc4)c3c2)cc2c1C(=O)N([C@@H](C)C1CC1)C2	> 242	0.042	3.5	> 242
Cc1cc(-c2cnc3[nH]cc(-c4cccnc4)c3c2)cc2c1C(=O)N(C(C)C1CC1)C2 (racemic)	89	0.007	0.4	112
Cc1cc(-c2cnc3[nH]cc(C(=O)NC4CCOCC4)c3c2)cc2c1C(=O)N([C@@H](C)C1CC1)C2	> 2240	0.0045	0.32	1030
Cc1cc(-c2cnc3[nH]cc(C(=O)Nc4ccncc4)c3c2)cc2c1C(=O)N([C@@H](C)C1CC1)C2	> 856	0.012	1.3	> 856
Cc1cc(-c2cnc3[nH]cc(-c4ccnc(N)c4)c3c2)cc2c1C(=O)N([C@@H](C)C1CC1)C2	214	0.0058	0.4	640
Cc1cc(-c2cnc3[nH]nnc3c2)cc2c1C(=O)N(C(C)C1CC1)C2 (racemic)		1.6		
C[C@@H](C1CC1)N1Cc2cc(-c3cnc4[nH]cc(-c5cnn(C)c5)c4c3)cc(C#N)c2C1=O	1060	0.0037	0.17	244
Cc1cc(-c2cnc3[nH]cc(-c4ccncc4)c3c2)cc2c1C(=O)N([C@@H](C)c1ccc(F)cc1)C2	142	0.04	2.1	> 190
Cc1cc(-c2cnc3[nH]cc(-c4ccccc4C(=O)O)c3c2)cc2c1C(=O)N([C@@H](C)C1CC1)C2	> 59	0.18	15	> 59

SMILES	Selectivity ratio (Homo sapiens [1])	IC50 [2] [µM]	IC50 [3] [µM]	Selectivity ratio (Homo sapiens [4])
Cc1cc(-c2cnc3[nH]cc(-c4ccc(C(N)=O)cc4)c3c2)cc2c1C(=O)N([C@@H](C)C1CC1)C2	711	0.00259	0.23	226
Cc1cc(-c2cnc3[nH]cc(-c4ccc(C(=O)O)c(C(C)C)c4)c3c2)cc2c1C(=O)N([C@@H](C)C1CC1)C2	224	0.0021	0.059	344
C[C@@H](C1CC1)N1Cc2cc(-c3cnc4[nH]cc(-c5cnn(C)c5)c4c3)cc(Cl)c2C1=O	455	0.0024	0.17	533
C[C@@H](C1CC1)N1Cc2cc(-c3cnc4[nH]cc(-c5cnn(C)c5)c4c3)cc(NS(C)(=O)=O)c2C1=O	449	0.004	0.15	615
Cc1cc(-c2cnc3[nH]ccc3c2)cc2c1C(=O)N([C@@H](C)C1CC1)C2		0.05		
Cc1cc(-c2cnc3[nH]ncc3n2)cc2c1C(=O)N([C@@H](C)C1CC1)C2		0.08		
C[C@@H](C1CC1)N1Cc2cc(-c3cnc4[nH]cc(-c5cnn(C)c5)c4c3)cc(C(F)(F)F)c2C1=O	2800	0.0024	0.09	266
CNC(=O)c1cc(-c2cnc3[nH]cc(-c4cnn(C)c4)c3c2)cc2c1C(=O)N([C@@H](C)C1CC1)C2	1050	0.0079	0.73	> 1180
Cc1cc(-c2cnc3[nH]nc(-c4ccncc4)c3c2)cc2c1C(=O)N([C@@H](C)C1CC1)C2		0.008		
Cc1cc(-c2cnc3[nH]cc(-c4ccncc4)c3c2)cc2c1C(=O)N(C(C1CC1)C1CC1)C2	253	0.0068	0.8	901
Cc1cc(-c2cnc3[nH]cc(-c4ccc(C(=O)O)c(N5CCCC5)c4)c3c2)cc2c1C(=O)N([C@@H](C)C1CC1)C2	853	0.004	0.17	49
Cc1cc(-c2cnc3[nH]cc(-c4cc(C)c(C(=O)O)c(C5CC5)c4)c3c2)cc2c1C(=O)N([C@@H](C)C1CC1)C2	691	0.0012	0.07	367
Cc1cc(-c2cnc3[nH]cc(-c4ccn(C)c(=O)c4)c3c2)cc2c1C(=O)N([C@@H](C)C1CC1)C2	466	0.026	0.2	128
Cc1cc(-c2cnc3[nH]ncc3c2)cc2c1C(=O)N([C@@H](C)C1CC1)C2		0.035		
Cc1cc(-c2cnc3[nH]cc(-c4ccc(S(N)(=O)=O)cc4)c3c2)cc2c1C(=O)N([C@@H](C)C1CC1)C2	1060	0.005	0.4	463
Cc1cc(-c2cnc3c(c2)CC(=O)N3)cc2c1C(=O)N(C(C)C1CC1)C2 (racemic)		0.6		
Cc1cc(-c2cnc3[nH]c(=O)ccc3c2)cc2c1C(=O)N(C(C)C1CC1)C2 (racemic)		0.53		
Cc1cc(-c2cnc3[nH]ncc3c2)cc2c1C(=O)N(C(C)C1CC1)C2 (racemic)		0.09		
Cc1cc(-c2cnc3cn[nH]c3c2)cc2c1C(=O)N(C(C)C1CC1)C2 (racemic)		0.49		
